Source: patent US10543212B2, “Substituted amines for treating cardiac diseases” (Cardurion Pharmaceuticals, LLC, priority 2017, dated 2020)

target: T1, Full-length, GST-tagged, human CaMKIIδ (Homo sapiens, UniProt Q13557); test: CaMKIIδ binding assay (TR-FRET with BODIPY-labeled probe ligand); conditions: CaMKIIδ binding assay, results of Table 2
T1 construct: Full-Length, Glutathione-S-Transferase(GST)-Tagged, Human CaMKIIδ was purchased from Carna Biosciences; purchased Carna Biosciences 02-111
Outline: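 TR-FRET probe-displacement binding: 0.5 nM GST-CaMKIIδ with 10 μg/mL calmodulin, 1 mM CaCl2, 0.21 nM Tb-anti-GST Ab and 300 nM BODIPY probe in HEPES pH 7.6 buffer. Eight-point 4-fold dilutions, 1 hr at room temperature. IC50 from logistic fit; 100% inhibition defined by 3 μM parent compound.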

T1 sequence (Q13557 1-478 isoform Q13557-12): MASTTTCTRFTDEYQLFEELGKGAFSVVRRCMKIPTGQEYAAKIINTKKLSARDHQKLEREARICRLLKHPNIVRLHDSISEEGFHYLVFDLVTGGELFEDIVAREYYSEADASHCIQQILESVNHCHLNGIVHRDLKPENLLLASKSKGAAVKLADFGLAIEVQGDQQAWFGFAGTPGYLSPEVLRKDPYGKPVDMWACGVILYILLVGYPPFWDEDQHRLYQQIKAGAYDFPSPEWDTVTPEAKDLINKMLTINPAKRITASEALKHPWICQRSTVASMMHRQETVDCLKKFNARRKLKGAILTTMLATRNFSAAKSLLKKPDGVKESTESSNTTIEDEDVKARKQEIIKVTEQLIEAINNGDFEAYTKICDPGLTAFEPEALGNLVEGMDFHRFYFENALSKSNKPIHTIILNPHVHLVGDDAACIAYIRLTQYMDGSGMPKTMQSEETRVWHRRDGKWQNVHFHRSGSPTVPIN

**Q.** For COc1cnc(C2CCOCC2)cc1Nc1ncc(-c2ccc(Cl)c(O[C@@H](C)Cn3cnnn3)c2)cn1 [Example 517, (S)-5-(3-((1-(1H-tetrazol-1-yl)propan-2-yl)oxy)-4-chlorophenyl)-N-(5-methoxy-2-(tetrahydro-2H-pyran-4-yl)pyridin-4-yl)pyrimidin-2-amine], which IC50 is on record?
**A.** 0.01 to 0.1 µM

**Q.** COc1cc2c(cc1Nc1ncc(-c3ccc(Cl)c(O[C@@H](C)Cn4cnnn4)c3)cn1)CNCC2 [Example 461, (S)-N-(5-(3-((1-(1H-tetrazol-1-yl)propan-2-yl)oxy)-4-chlorophenyl)pyrimidin-2-yl)-6-methoxy-1,2,3,4-tetrahydroisoquinolin-7-amine] was tested. Which IC50 did it give?
**A.** < 0.01 µM

**Q.** Which IC50 does the source give for C[C@@H](Cn1cnnn1)Oc1cc(-c2cnc(Nc3cc4c(cc3Cl)CCN(C3CCOCC3)CC4)nc2)ccc1C#N [Example 538, (S)-2-((1-(1H-tetrazol-1-yl)propan-2-yl)oxy)-4-(2-((8-chloro-3-(tetrahydro-2H-pyran-4-yl)-2,3,4,5-tetrahydro-1H-benzo[d]azepin-7-yl)amino)pyrimidin-5-yl)benzonitrile] here?
**A.** < 0.01 µM

**Q.** With COc1cc2c(cc1Nc1ncc(-c3ccc(Cl)c(O[C@@H](C)Cn4cnnn4)c3)cn1)CN(C(=O)CO)CC2 [Example 522, (S)-1-(7-((5-(3-((1-(1H-tetrazol-1-yl)propan-2-yl)oxy)-4-chlorophenyl)pyrimidin-2-yl)amino)-6-methoxy-3,4-dihydroisoquinolin-2(1H)-yl)-2-hydroxyethan-1-one] as the compound, how does the IC50 read?
**A.** 0.01 to 0.1 µM

same assay, conditions: CaMKIIδ binding assay; activity class per Table 2

**Q.** For C[C@@H](Cn1cnnn1)Oc1cc(-c2cnc(Nc3cn([C@H]4C[C@H](N)C4)nc3OCC(F)(F)F)nc2)ccc1Cl [Example 941, 5-(3-(((S)-1-(1H-tetrazol-1-yl)propan-2-yl)oxy)-4-chlorophenyl)-N-(1-(trans-3-aminocyclobutyl)-3-(2,2,2-trifluoroethoxy)-1H-pyrazol-4-yl)pyrimidin-2-amine], which IC50 is on record?
**A.** < 0.01 µM

same assay, conditions: Table 2; CaMKIIδ binding assay, activity given as class A/B/C

**Q.** For C[C@@H](Cn1cnnn1)Oc1cc(-c2cnc(Nc3cn([C@H]4CC[C@@H](N5CCOCC5)CC4)nc3OCC(F)F)nc2)ccc1Cl [Example 805, 5-(3-(((S)-1-(1H-tetrazol-1-yl)propan-2-yl)oxy)-4-chlorophenyl)-N-(3-(2,2-difluoroethoxy)-1-(cis-4-morpholinocyclohexyl)-1H-pyrazol-4-yl)pyrimidin-2-amine], which IC50 is on record?
**A.** < 0.01 µM

**Q.** With C[C@@H](Cn1cnnn1)Oc1cc(-c2cnc(Nc3cn(C4CCCCO4)nc3OCC(F)(F)F)nc2)ccc1C#N (stereo partly drawn) [Example 763, 2-(((S)-1-(1H-tetrazol-1-yl)propan-2-yl)oxy)-4-(2-((1-(tetrahydro-2H-pyran-2-yl)-3-(2,2,2-trifluoroethoxy)-1H-pyrazol-4-yl)amino)pyrimidin-5-yl)benzonitrile] as the compound, how does the IC50 read?
**A.** < 0.01 µM

**Q.** For C[C@@H](Cn1cnnn1)Oc1cc(-c2cnc(Nc3cn([C@H]4CC[C@H](N5CCC5)CC4)nc3C(F)(F)F)nc2)ccc1Cl [Example 779, 5-(3-(((S)-1-(1H-tetrazol-1-yl)propan-2-yl)oxy)-4-chlorophenyl)-N-(1-(trans-4-(azetidin-1-yl)cyclohexyl)-3-(trifluoromethyl)-1H-pyrazol-4-yl)pyrimidin-2-amine], which IC50 is on record?
**A.** < 0.01 µM

same assay, conditions: Table 2; activity class for CaMKIIδ

**Q.** COc1nn(C2CCNCC2)cc1Nc1ncc(-c2ccc(Cl)c(O[C@@H](C)Cn3cnnn3)c2)cn1 [Example 657, (S)-5-(3-((1-(1H-tetrazol-1-yl)propan-2-yl)oxy)-4-chlorophenyl)-N-(3-methoxy-1-(piperidin-4-yl)-1H-pyrazol-4-yl)pyrimidin-2-amine] was tested. Which IC50 did it give?
**A.** < 0.01 µM

**Q.** How did the IC50 turn out when C[C@@H](Cn1cnnn1)Oc1cc(-c2cnc(Nc3cc(C(F)(F)F)nn3C)nc2)ccc1Cl [Example 720, (S)-5-(3-((1-(1H-tetrazol-1-yl)propan-2-yl)oxy)-4-chlorophenyl)-N-(1-methyl-3-(trifluoromethyl)-1H-pyrazol-5-yl)pyrimidin-2-amine] was run?
**A.** 0.01 to 0.1 µM

**Q.** Which IC50 does the source give for COc1ccc(C(=O)N2CCN(C3COC3)CC2)cc1Nc1ncc(-c2ccc(Cl)c(O[C@@H](C)Cn3cnnn3)c2)cn1 [Example 589, (S)-(3-((5-(3-((1-(1H-tetrazol-1-yl)propan-2-yl)oxy)-4-chlorophenyl)pyrimidin-2-yl)amino)-4-methoxyphenyl) (4-(oxetan-3-yl)piperazin-1-yl)methanone] here?
**A.** 0.01 to 0.1 µM

**Q.** Which IC50 does the source give for C[C@@H](Cn1cnnn1)Oc1cc(-c2cnc(Nc3cn(C4CCCCNC4=O)nc3C(F)(F)F)nc2)ccc1Cl (stereo partly drawn) [Example 629, 3-(4-((5-(3-(((S)-1-(1H-tetrazol-1-yl)propan-2-yl)oxy)-4-chlorophenyl)pyrimidin-2-yl)amino)-3-(trifluoromethyl)-1H-pyrazol-1-yl)azepan-2-one] here?
**A.** < 0.01 µM

**Q.** C[C@@H](Cn1cnnn1)Oc1cc(-c2cnc(Nc3cn(C4CCC(O)CC4)nc3C(F)(F)F)nc2)ccc1Cl (stereo partly drawn) [Example 670, (S)-4-(4-((5-(3-((1-(1H-tetrazol-1-yl)propan-2-yl)oxy)-4-chlorophenyl)pyrimidin-2-yl)amino)-3-(trifluoromethyl)-1H-pyrazol-1-yl)cyclohexan-1-ol] was tested. Which IC50 did it give?
**A.** 0.01 to 0.1 µM

**Q.** With CC(C)c1nn(C2CCN(C3CCOCC3)CC2)cc1Nc1ncc(-c2ccc(Cl)c(O[C@@H](C)Cn3cnnn3)c2)cn1 [Example 623, (S)-5-(3-((1-(1H-tetrazol-1-yl)propan-2-yl)oxy)-4-chlorophenyl)-N-(3-isopropyl-1-(1-(tetrahydro-2H-pyran-4-yl)piperidin-4-yl)-1H-pyrazol-4-yl)pyrimidin-2-amine] as the compound, how does the IC50 read?
**A.** < 0.01 µM

**Q.** C[C@@H](Cn1cnnn1)Oc1cc(-c2cnc(Nc3c[nH]nc3C(F)(F)F)nc2)ccc1Cl [Example 628, (S)-5-(3-((1-(1H-tetrazol-1-yl)propan-2-yl)oxy)-4-chlorophenyl)-N-(3-(trifluoromethyl)-1H-pyrazol-4-yl)pyrimidin-2-amine] was tested. Which IC50 did it give?
**A.** 0.01 to 0.1 µM

**Q.** How did the IC50 turn out when C[C@@H](Cn1cnnn1)Oc1cc(-c2cnc(Nc3cn(C4CCN(C5CCOCC5)CC4)nc3C(F)(F)F)nc2)ccc1Cl [Example 706, (S)-5-(3-((1-(1H-tetrazol-1-yl)propan-2-yl)oxy)-4-chlorophenyl)-N-(1-(1-(tetrahydro-2H-pyran-4-yl)piperidin-4-yl)-3-(trifluoromethyl)-1H-pyrazol-4-yl)pyrimidin-2-amine] was run?
**A.** < 0.01 µM

**Q.** For C[C@@H](Cn1cnnn1)Oc1cc(-c2cnc(Nc3cn([C@@H]4Cc5ccccc5[C@@H]4O)nc3C(F)(F)F)nc2)ccc1Cl [Example 721, (1S,2R)-2-(4-((5-(3-(((S)-1-(1H-tetrazol-1-yl)propan-2-yl)oxy)-4-chlorophenyl)pyrimidin-2-yl)amino)-3-(trifluoromethyl)-1H-pyrazol-1-yl)-2,3-dihydro-1H-inden-1-ol], which IC50 is on record?
**A.** 0.01 to 0.1 µM

**Q.** How did the IC50 turn out when C[C@@H](Cn1cnnn1)Oc1cc(-c2cnc(Nc3cn(C4CCN(C(=O)OC(C)(C)C)CC4)nc3OCC(F)(F)F)nc2)ccc1Cl [Example 675, tert-butyl (S)-4-(4-((5-(3-((1-(1H-tetrazol-1-yl)propan-2-yl)oxy)-4-chlorophenyl)pyrimidin-2-yl)amino)-3-(2,2,2-trifluoroethoxy)-1H-pyrazol-1-yl)piperidine-1-carboxylate] was run?
**A.** 0.01 to 0.1 µM

**Q.** With C[C@@H](Cn1cnnn1)Oc1cc(-c2cnc(Nc3cn(C4CCNCC4)nc3OCC(F)(F)F)nc2)ccc1Cl [Example 676, (S)-5-(3-((1-(1H-tetrazol-1-yl)propan-2-yl)oxy)-4-chlorophenyl)-N-(1-(piperidin-4-yl)-3-(2,2,2-trifluoroethoxy)-1H-pyrazol-4-yl)pyrimidin-2-amine] as the compound, how does the IC50 read?
**A.** < 0.01 µM
